Experimental data reported in ChEMBL document CHEMBL1140860, “Synthesis and evaluation of dihydroartemisinin and dihydroartemisitene acetal dimers showing anticancer and antiprotozoal activity” (Bioorg Med Chem, 2009).

Experiments:
[1] = test system: EKVX; experiment: Growth inhibition of human EKVX cells after 48 hrs by sulforhodamine B assay; type: functional
[2] = test system: SF-539; experiment: Growth inhibition of human SF539 cells after 48 hrs by sulforhodamine B assay; type: functional; conditions: SF-539, 48 h
[3] = test system: HT-29; experiment: Growth inhibition of human HT-29 cells after 48 hrs by sulforhodamine B assay; type: functional; conditions: HT-29, 48 h
[4] = test system: A549; experiment: Growth inhibition of human A549 cells after 48 hrs by sulforhodamine B assay; type: functional; conditions: A549, 48 h
[5] = test system: SNB-19; experiment: Growth inhibition of human SNB19 cells after 48 hrs by sulforhodamine B assay; type: functional; conditions: SNB-19, 48 h
[6] = test system: BT-549; experiment: Growth inhibition of human BT549 cells after 48 hrs by sulforhodamine B assay; type: functional; conditions: BT-549, 48 h
[7] = test system: T47D; experiment: Growth inhibition of human T47D cells after 48 hrs by sulforhodamine B assay; type: functional
[8] = test system: OVCAR-5; experiment: Growth inhibition of human OVCAR5 cells after 48 hrs by sulforhodamine B assay; type: functional; conditions: OVCAR-5, 48 h
[9] = test system: U-251; experiment: Growth inhibition of human U251 cells after 48 hrs by sulforhodamine B assay; type: functional; conditions: U-251, 48 h
[10] = test system: A498; experiment: Growth inhibition of human A498 cells after 48 hrs by sulforhodamine B assay; type: functional; conditions: A498, 48 h
[11] = test system: NCI-H226; experiment: Growth inhibition of human NCI-H226 cells after 48 hrs by sulforhodamine B assay; type: functional; conditions: NCI-H226, 48 h
[12] = test system: M14; experiment: Growth inhibition of human M14 cells after 48 hrs by sulforhodamine B assay; type: functional; conditions: M14, 48 h
[13] = test system: SF-295; experiment: Growth inhibition of human SF295 cells after 48 hrs by sulforhodamine B assay; type: functional; conditions: SF-295, 48 h
[14] = test system: SNB-75; experiment: Growth inhibition of human SNB75 cells after 48 hrs by sulforhodamine B assay; type: functional; conditions: SNB-75, 48 h
[15] = test system: SK-MEL-5; experiment: Growth inhibition of human SK-MEL-5 cells after 48 hrs by sulforhodamine B assay; type: functional; conditions: SK-MEL-5, 48 h
[16] = test system: SK-MEL-2; experiment: Growth inhibition of human SK-MEL-2 cells after 48 hrs by sulforhodamine B assay; type: functional; conditions: SK-MEL-2, 48 h
[17] = test system: HOP-92; experiment: Growth inhibition of human HOP92 cells after 48 hrs by sulforhodamine B assay; type: functional; conditions: HOP-92, 48 h
[18] = test system: K562; experiment: Growth inhibition of human K562 cells after 48 hrs by sulforhodamine B assay; type: functional; conditions: K562, 48 h
[19] = test system: SF-268; experiment: Growth inhibition of human SF268 cells after 48 hrs by sulforhodamine B assay; type: functional; conditions: SF-268, 48 h
[20] = test system: TK-10; experiment: Growth inhibition of human TK10 cells after 48 hrs by sulforhodamine B assay; type: functional; conditions: TK-10, 48 h
[21] = test system: UACC-257; experiment: Growth inhibition of human UACC257 cells after 48 hrs by sulforhodamine B assay; type: functional; conditions: UACC-257, 48 h
[22] = test system: LOX IMVI; experiment: Growth inhibition of human LOXIMVI cells after 48 hrs by sulforhodamine B assay; type: functional
[23] = test system: 786-0; experiment: Growth inhibition of human 786-0 cells after 48 hrs by sulforhodamine B assay; type: functional; conditions: 786-0, 48 h
[24] = test system: Plasmodium falciparum; experiment: Antimalarial activity after 72 hrs against chloroquine-sensitive Plasmodium falciparum D6 infected in erythrocytes by LDH assay; type: functional, organism-based; conditions: D6, 72 h
[25] = test system: Malme-3M; experiment: Growth inhibition of human MALME-3M cells after 48 hrs by sulforhodamine B assay; type: functional
[26] = test system: OVCAR-4; experiment: Growth inhibition of human OVCAR4 cells after 48 hrs by sulforhodamine B assay; type: functional; conditions: OVCAR-4, 48 h
[27] = test system: NCI/ADR-RES; experiment: Growth inhibition of human NCI/ADR-RES cells after 48 hrs by sulforhodamine B assay; type: functional
[28] = test system: HCT-15; experiment: Growth inhibition of human HCT15 cells after 48 hrs by sulforhodamine B assay; type: functional; conditions: HCT-15, 48 h
[29] = test system: NCI-H23; experiment: Growth inhibition of human NCI-H23 cells after 48 hrs by sulforhodamine B assay; type: functional; conditions: NCI-H23, 48 h
[30] = test system: RXF 393; experiment: Growth inhibition of human RXF393 cells after 48 hrs by sulforhodamine B assay; type: functional; conditions: RXF 393, 48 h
[31] = test system: MDA-MB-231; experiment: Growth inhibition of human MDA-MB-231 cells after 48 hrs by sulforhodamine B assay; type: functional; conditions: MDA-MB-231, 48 h
[32] = test system: HOP-62; experiment: Growth inhibition of human HOP62 cells after 48 hrs by sulforhodamine B assay; type: functional; conditions: HOP-62, 48 h
[33] = test system: UO-31; experiment: Growth inhibition of human UO31 cells after 48 hrs by sulforhodamine B assay; type: functional; conditions: UO-31, 48 h
[34] = test system: NCI-H460; experiment: Growth inhibition of human NCI-H460 cells after 48 hrs by sulforhodamine B assay; type: functional; conditions: NCI-H460, 48 h
[35] = test system: MDA-MB-435; experiment: Growth inhibition of human MDA-MB-435 cells after 48 hrs by sulforhodamine B assay; type: functional; conditions: MDA-MB-435, 48 h
[36] = test system: MCF7; experiment: Growth inhibition of human MCF7 cells after 48 hrs by sulforhodamine B assay; type: functional; conditions: MCF7, 48 h
[37] = test system: HL-60; experiment: Growth inhibition of human HL-60(TB) cells after 48 hrs by sulforhodamine B assay; type: functional; conditions: HL-60, 48 h
[38] = test system: UACC-62; experiment: Growth inhibition of human UACC62 cells after 48 hrs by sulforhodamine B assay; type: functional; conditions: UACC-62, 48 h
[39] = test system: OVCAR-3; experiment: Growth inhibition of human OVCAR-3 cells after 48 hrs by sulforhodamine B assay; type: functional; conditions: OVCAR-3, 48 h
[40] = test system: KM12; experiment: Growth inhibition of human KM12 cells after 48 hrs by sulforhodamine B assay; type: functional; conditions: KM12, 48 h
[41] = test system: PC-3; experiment: Growth inhibition of human PC3 cells after 48 hrs by sulforhodamine B assay; type: functional; conditions: PC-3, 48 h
[42] = test system: MOLT-4; experiment: Growth inhibition of human MOLT4 cells after 48 hrs by sulforhodamine B assay; type: functional; conditions: MOLT-4, 48 h
[43] = test system: SW-620; experiment: Growth inhibition of human SW620 cells after 48 hrs by sulforhodamine B assay; type: functional; conditions: SW-620, 48 h
[44] = test system: CCRF-CEM; experiment: Growth inhibition of human CCRF-CEM cells after 48 hrs by sulforhodamine B assay; type: functional
[45] = test system: Plasmodium falciparum; experiment: Antimalarial activity after 72 hrs against chloroquine-resistant Plasmodium falciparum W2 infected erythrocytes by LDH assay; type: functional, organism-based; conditions: W2, 72 h
[46] = Selectivity index, ratio of TC50 for african green monkey (Cercopithecus aethiops) Vero cells to IC50 for chloroquine-sensitive Plasmodium falciparum D6; type: toxicity, cell-based
[47] = test system: MDA-N; experiment: Growth inhibition of human MDA-N cells after 48 hrs by sulforhodamine B assay; type: functional
[48] = test system: SR; experiment: Growth inhibition of human SR cells after 48 hrs by sulforhodamine B assay; type: functional
[49] = Selectivity index, ratio of TC50 for african green monkey (Cercopithecus aethiops) Vero cells to IC50 for chloroquine-resistant Plasmodium falciparum W2; type: toxicity, cell-based
[50] = Cytotoxicity against african green monkey Vero cells after 48 hrs by neutral red assay; type: cell-based; conditions: chlorocebus sabaeus, read-out: TC50

Structure (SMILES): C[C@H]1[C@@H](OCC(CO[C@H]2O[C@@H]3O[C@@]4(C)CC[C@H]5[C@H](C)CC[C@@H]([C@H]2C)[C@@]35OO4)OC(=O)CCC(=O)O)O[C@@H]2O[C@@]3(C)CC[C@H]4[C@H](C)CC[C@@H]1[C@@]24OO3 (some centres not stated)
- GI50 [1]: 0.47 µM
- GI50 [2]: 0.616 µM
- GI50 [3]: < 0.01 µM
- GI50 [4]: 0.069 µM
- GI50 [5]: 10.1 µM
- GI50 [6]: 0.724 µM
- GI50 [7]: < 0.01 µM
- GI50 [8]: < 0.01 µM
- GI50 [9]: < 0.01 µM
- GI50 [10]: 13.8 µM
- GI50 [11]: 0.048 µM
- GI50 [12]: < 0.01 µM
- GI50 [13]: 0.034 µM
- GI50 [14]: 22.1 µM
- GI50 [15]: 0.147 µM
- GI50 [16]: 5.2 µM
- GI50 [17]: 0.121 µM
- GI50 [18]: 0.23 µM
- GI50 [19]: 2.18 µM
- GI50 [20]: 0.211 µM
- GI50 [21]: 0.046 µM
- GI50 [22]: < 0.01 µM
- GI50 [23]: 0.023 µM
- IC50 [24]: 1.4 µM
- GI50 [25]: 4.05 µM
- GI50 [26]: 0.058 µM
- GI50 [27]: 0.207 µM
- GI50 [28]: < 0.01 µM
- GI50 [29]: 0.01 µM
- GI50 [30]: < 0.01 µM
- GI50 [31]: 0.345 µM
- GI50 [32]: 0.086 µM
- GI50 [33]: 0.355 µM
- GI50 [34]: 0.033 µM
- GI50 [35]: 0.013 µM
- GI50 [36]: < 0.01 µM
- GI50 [37]: 0.011 µM
- GI50 [38]: 0.077 µM
- GI50 [39]: 0.02 µM
- GI50 [40]: < 0.01 µM
- GI50 [41]: < 0.01 µM
- GI50 [42]: 0.29 µM
- GI50 [43]: 0.029 µM
- GI50 [44]: 0.078 µM
- IC50 [45]: 2.1 µM

Structure (SMILES): C[C@H]1[C@@H](OCC(O)CO[C@@H]2C[C@@H]3CC[C@@H](C)[C@@H]4CC[C@@]5(C)OO[C@@]34[C@H](O2)O5)O[C@@H]2O[C@@]3(C)CC[C@H]4[C@H](C)CC[C@@H]1[C@@]24OO3 (some centres not stated)
- selectivity ratio [46]: > 23800
- GI50 [1]: 0.307 µM
- GI50 [2]: 8.64 µM
- GI50 [3]: 0.268 µM
- GI50 [4]: 0.505 µM
- GI50 [5]: 27.6 µM
- GI50 [6]: 0.408 µM
- GI50 [7]: 0.027 µM
- GI50 [47]: 0.368 µM
- GI50 [8]: 17.7 µM
- GI50 [10]: 0.686 µM
- GI50 [11]: 61.7 µM
- GI50 [12]: 14.9 µM
- GI50 [13]: 9.52 µM
- GI50 [14]: 8.25 µM
- GI50 [15]: 0.095 µM
- GI50 [48]: 0.178 µM
- GI50 [16]: 14.2 µM
- GI50 [17]: 0.384 µM
- GI50 [18]: 0.06 µM
- GI50 [19]: 13.7 µM
- GI50 [21]: 0.257 µM
- GI50 [22]: 0.11 µM
- GI50 [23]: 0.417 µM
- IC50 [24]: 0.3 µM
- GI50 [25]: 8.82 µM
- selectivity ratio [49]: > 6430
- GI50 [26]: 0.209 µM
- GI50 [27]: 0.34 µM
- GI50 [28]: 0.027 µM
- GI50 [29]: 0.135 µM
- GI50 [30]: 0.213 µM
- GI50 [31]: 45.8 µM
- GI50 [32]: 13.3 µM
- GI50 [33]: 0.108 µM
- GI50 [35]: 0.301 µM
- GI50 [36]: 0.095 µM
- GI50 [37]: 0.062 µM
- GI50 [38]: 0.296 µM
- CC50 at 48 h [50]: > 7620 µM
- GI50 [39]: 0.171 µM
- GI50 [40]: 0.166 µM
- GI50 [41]: 0.035 µM
- GI50 [42]: 0.298 µM
- GI50 [43]: 0.099 µM
- GI50 [44]: 0.104 µM
- IC50 [45]: 1.2 µM
